# Measurements taken from US20120258980A1, “Antibacterial Agent for Drug-Resistant Bacteria, Method for Screening for Same, and Use of Same” (priority 2009, published 2012).
# System: VISA clinical isolates of MRSA (VI-MRSA) and of MSSA (VI-MSSA)
# Test: microbe, parasite or virus in culture
# Type: cell-based, Staphylococcus aureus
# Procedure: Each of the bacterial strains listed in Table 1-1 was shake-cultured at 37° C. overnight in 4 mL of a medium (Tryptical Soy Broth: TSB, product of Becton Dickinson and Company). FDA209P was used as a control.
# After completion of culturing, the resultant culture was suspended in a cation-adjusted Mueller Hinton Broth (CAMHB, product of Becton Dickinson and Company). Then, the obtained bacterial culture was adjusted in absorbance with the CAMHB so that the absorbance at 578 nm of the bacterial culture was adjusted to 0.3 measured by an absorption spectrometer. In addition, the resultant bacterial culture was 500-fold diluted with the CAMHB.
# Each of the 500-fold diluted, pre-cultured bacterial cultures was added at 50 μL/well to the CAMHB containing the quinolones and the nybomycins at various concentrations (50 μL/well), followed by statically culturing at 37° C. overnight.
# After completion of culturing, the growth of the bacteria was visually determined based on turbidity to measure MIC in each bacterial strain.
# Here, the glycopeptides used were VCM and TEIC. The β-lactam used was OXA.
# [1] = Staphylococcus aureus, 99/3700-W, VI-MRSA, The United Kingdom
# [2] = Staphylococcus aureus, 99/3759-V, VI-MRSA, The United Kingdom
# [3] = Staphylococcus aureus, 28160, VI-MRSA, South African Republic
# [4] = Staphylococcus aureus, 98141, VI-MRSA, France
# [5] = Staphylococcus aureus, A7 (JCSC4842), VI-MRSA, Taiwan
# [6] = Staphylococcus aureus, AMC11094, VI-MRSA, Korea
# [7] = Staphylococcus aureus, B7 (JCSC4852), VI-MRSA, Taiwan
# [8] = Staphylococcus aureus, BR1, VI-MRSA, Brazil
# [9] = Staphylococcus aureus, BR2, VI-MRSA, Brazil
# [10] = Staphylococcus aureus, BR3, VI-MRSA, Brazil
# [11] = Staphylococcus aureus, BR4, VI-MRSA, Brazil
# [12] = Staphylococcus aureus, BR5, VI-MRSA, Brazil
# [13] = Staphylococcus aureus, HIP06297, VI-MRSA, America
# [14] = Staphylococcus aureus, HIP06854, VI-MRSA, America
# [15] = Staphylococcus aureus, HIP07920, VI-MRSA, America
# [16] = Staphylococcus aureus, HIP07930, VI-MRSA, America
# [17] = Staphylococcus aureus, HIP08926, VI-MRSA, America
# [18] = Staphylococcus aureus, HIP09143, VI-MRSA, America
# [19] = Staphylococcus aureus, HIP09313, VI-MRSA, America
# [20] = Staphylococcus aureus, HIP09433, VI-MRSA, America
# [21] = Staphylococcus aureus, HIP09662, VI-MRSA, America
# [22] = Staphylococcus aureus, HIP09735, VI-MRSA, America
# [23] = Staphylococcus aureus, HIP09737, VI-MSSA, America
# [24] = Staphylococcus aureus, HIP09740, VI-MRSA, America
# [25] = Staphylococcus aureus, HIP10267, VI-MRSA, America
# [26] = Staphylococcus aureus, HIP10540, VI-MRSA, America
# [27] = Staphylococcus aureus, HIP12864, VI-MRSA, America
# [28] = Staphylococcus aureus, HIP13036, VI-MRSA, America
# [29] = Staphylococcus aureus, HIP13057, VI-MRSA, America
# [30] = Staphylococcus aureus, IL (HIP7737), VI-MRSA, America
# [31] = Staphylococcus aureus, JCSC7193, VI-MRSA, Thailand
# [32] = Staphylococcus aureus, JCSC7195, VI-MRSA, Thailand
# [33] = Staphylococcus aureus, JCSC7203, VI-MRSA, Thailand
# [34] = Staphylococcus aureus, LIM2, VI-MRSA, France
# [35] = Staphylococcus aureus, LY-1999-01, VI-MSSA, Oman
# [36] = Staphylococcus aureus, LY-1999-03, VI-MRSA, Oman
# [37] = Staphylococcus aureus, MI (HIP5827), VI-MRSA, America
# [38] = Staphylococcus aureus, MRSA / MSSA / NRS 76 / VISA, NRS76, VI-MSSA, America
# [39] = Staphylococcus aureus, MRSA / MSSA / NRS 79 / VISA, NRS79, VI-MRSA, America
# [40] = Staphylococcus aureus, MRSA / MSSA / NRS 118 / VISA, NRS118, VI-MRSA, America
# [41] = Staphylococcus aureus, MRSA / MSSA / NRS 126 / VISA, NRS126, VI-MRSA, America
# [42] = Staphylococcus aureus, Mu3, VI-MRSA, Japan
# [43] = Staphylococcus aureus, Mu50, VI-MRSA, Japan
# [44] = Staphylococcus aureus, NJ (HIP5836), VI-MRSA, America
# [45] = Staphylococcus aureus, P1V44, VI-MSSA, Belgium
# [46] = Staphylococcus aureus, PC, VI-MRSA, America
# [47] = Staphylococcus aureus, SA MER-S6, VI-MSSA, France
# [48] = Staphylococcus aureus, SA MER-S12, VI-MSSA, France
# [49] = Staphylococcus aureus, SA MER-S20, VI-MSSA, France
smiles,measurement,setting,value
"Cc1cc(=O)n(C)c2c3c4c(cc12)c(C)cc(=O)n4CO3 [DNM, deoxynybomycin]",MIC,[1],0.25 µg/mL
same,MIC,[2],1 µg/mL
same,MIC,[3],0.125 µg/mL
same,MIC,[4],0.125 µg/mL
same,MIC,[5],≤ 0.063 µg/mL
same,MIC,[6],0.125 µg/mL
same,MIC,[7],0.125 µg/mL
same,MIC,[8],0.25 µg/mL
same,MIC,[9],0.125 µg/mL
same,MIC,[10],0.125 µg/mL
same,MIC,[11],0.25 µg/mL
same,MIC,[12],0.25 µg/mL
same,MIC,[13],0.125 µg/mL
same,MIC,[14],0.5 µg/mL
same,MIC,[15],0.25 µg/mL
same,MIC,[16],0.5 µg/mL
same,MIC,[17],0.5 µg/mL
same,MIC,[18],0.5 µg/mL
same,MIC,[19],0.125 µg/mL
same,MIC,[20],0.5 µg/mL
same,MIC,[21],0.25 µg/mL
same,MIC,[22],0.5 µg/mL
same,MIC,[23],1 µg/mL
same,MIC,[24],0.25 µg/mL
same,MIC,[25],0.25 µg/mL
same,MIC,[26],≤ 0.063 µg/mL
same,MIC,[27],0.125 µg/mL
same,MIC,[28],0.25 µg/mL
same,MIC,[29],0.125 µg/mL
same,MIC,[30],1 µg/mL
same,MIC,[31],0.33 µg/mL
same,MIC,[32],0.16 µg/mL
same,MIC,[33],0.16 µg/mL
same,MIC,[34],0.25 µg/mL
same,MIC,[35],≤ 0.063 µg/mL
same,MIC,[36],≤ 0.063 µg/mL
same,MIC,[37],≤ 0.063 µg/mL
same,MIC,[38],≤ 0.063 µg/mL
same,MIC,[39],1 µg/mL
same,MIC,[40],2 µg/mL
same,MIC,[41],0.5 µg/mL
same,MIC,[42],0.5 µg/mL
same,MIC,[43],0.25 µg/mL
same,MIC,[44],0.25 µg/mL
same,MIC,[45],0.5 µg/mL
same,MIC,[46],0.125 µg/mL
same,MIC,[47],> 64 µg/mL
same,MIC,[48],> 64 µg/mL
same,MIC,[49],> 64 µg/mL
"C[C@H]1COc2c(N3CCN(C)CC3)c(F)cc3c(=O)c(C(=O)O)cn1c23 [LVFX, levofloxacin]",MIC,[1],16 µg/mL
same,MIC,[2],16 µg/mL
same,MIC,[3],8 µg/mL
same,MIC,[4],16 µg/mL
same,MIC,[5],8 µg/mL
same,MIC,[6],16 µg/mL
same,MIC,[7],8 µg/mL
same,MIC,[8],16 µg/mL
same,MIC,[9],8 µg/mL
same,MIC,[10],16 µg/mL
same,MIC,[11],8 µg/mL
same,MIC,[12],16 µg/mL
same,MIC,[13],4 µg/mL
same,MIC,[14],16 µg/mL
same,MIC,[15],8 µg/mL
same,MIC,[16],32 µg/mL
same,MIC,[17],16 µg/mL
same,MIC,[18],32 µg/mL
same,MIC,[19],8 µg/mL
same,MIC,[20],32 µg/mL
same,MIC,[21],32 µg/mL
same,MIC,[22],8 µg/mL
same,MIC,[23],32 µg/mL
same,MIC,[24],32 µg/mL
same,MIC,[25],32 µg/mL
same,MIC,[26],8 µg/mL
same,MIC,[27],32 µg/mL
same,MIC,[28],4 µg/mL
same,MIC,[29],16 µg/mL
same,MIC,[30],32 µg/mL
same,MIC,[31],16 µg/mL
same,MIC,[32],32 µg/mL
same,MIC,[33],16 µg/mL
same,MIC,[34],32 µg/mL
same,MIC,[35],4 µg/mL
same,MIC,[36],4 µg/mL
same,MIC,[37],32 µg/mL
same,MIC,[38],16 µg/mL
same,MIC,[39],64 µg/mL
same,MIC,[40],32 µg/mL
same,MIC,[41],4 µg/mL
same,MIC,[42],16 µg/mL
same,MIC,[43],8 µg/mL
same,MIC,[44],16 µg/mL
same,MIC,[45],4 µg/mL
same,MIC,[46],8 µg/mL
same,MIC,[47],0.5 µg/mL
same,MIC,[48],0.5 µg/mL
same,MIC,[49],0.125 µg/mL
"CCn1cc(C(=O)O)c(=O)c2cc(F)c(N3CCNCC3)cc21 [NFLX, norfloxacin]",MIC,[1],64 µg/mL
same,MIC,[2],128 µg/mL
same,MIC,[3],64 µg/mL
same,MIC,[4],64 µg/mL
same,MIC,[5],32 µg/mL
same,MIC,[6],128 µg/mL
same,MIC,[7],64 µg/mL
same,MIC,[8],128 µg/mL
same,MIC,[9],64 µg/mL
same,MIC,[10],64 µg/mL
same,MIC,[11],128 µg/mL
same,MIC,[12],128 µg/mL
same,MIC,[13],64 µg/mL
same,MIC,[14],128 µg/mL
same,MIC,[15],16 µg/mL
same,MIC,[16],128 µg/mL
same,MIC,[17],64 µg/mL
same,MIC,[18],> 128 µg/mL
same,MIC,[19],32 µg/mL
same,MIC,[20],> 128 µg/mL
same,MIC,[21],64 µg/mL
same,MIC,[22],> 128 µg/mL
same,MIC,[23],> 128 µg/mL
same,MIC,[24],> 128 µg/mL
same,MIC,[25],> 128 µg/mL
same,MIC,[26],> 128 µg/mL
same,MIC,[27],64 µg/mL
same,MIC,[28],16 µg/mL
same,MIC,[29],128 µg/mL
same,MIC,[30],> 128 µg/mL
same,MIC,[31],64 µg/mL
same,MIC,[32],128 µg/mL
same,MIC,[33],64 µg/mL
same,MIC,[34],128 µg/mL
same,MIC,[35],16 µg/mL
same,MIC,[36],64 µg/mL
same,MIC,[37],128 µg/mL
same,MIC,[38],128 µg/mL
same,MIC,[39],> 128 µg/mL
same,MIC,[40],128 µg/mL
same,MIC,[41],64 µg/mL
same,MIC,[42],128 µg/mL
same,MIC,[43],128 µg/mL
same,MIC,[44],128 µg/mL
same,MIC,[45],4 µg/mL
same,MIC,[46],64 µg/mL
same,MIC,[47],2 µg/mL
same,MIC,[48],2 µg/mL
same,MIC,[49],0.5 µg/mL
